The text below walks through data of patent US20230382924A1, “MODULATORS OF CYSTIC FIBROSIS TRANSMEMBRANE CONDUCTANCE REGULATOR” (VERTEX PHARMACEUTICALS INCORPORATED, priority 2020, published 2023).

SMILES strings stand for the structures. Like-named read-outs stand apart in the source and are kept apart here.

The test concerns the target CFTR (Homo sapiens, UniProt P13569). Nature of the test: Membrane Potential Dye, Enteroid Assay A. The note with it: for EC50: read-out: Ent. A EC50. Format: cell-based. The method, boiled down:
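Enteroid cells were loaded with methyl oxonol membrane potential dye (plus CaCCinh-A01 and Chicago Sky Blue) for 25 min at room temperature. Chloride transport was started by switching to chloride-free gluconate stimulation solution, with fluorescence read for 15 min. Activity was expressed as % of a triple-combination CFTR modulator control (3 μM, 3 μM, 300 nM acute).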

Usually EC50 stands for the midpoint of the concentration-response curve.

CFTR, sequence (P13569 with tags, fused parts or gaps DEL508-508): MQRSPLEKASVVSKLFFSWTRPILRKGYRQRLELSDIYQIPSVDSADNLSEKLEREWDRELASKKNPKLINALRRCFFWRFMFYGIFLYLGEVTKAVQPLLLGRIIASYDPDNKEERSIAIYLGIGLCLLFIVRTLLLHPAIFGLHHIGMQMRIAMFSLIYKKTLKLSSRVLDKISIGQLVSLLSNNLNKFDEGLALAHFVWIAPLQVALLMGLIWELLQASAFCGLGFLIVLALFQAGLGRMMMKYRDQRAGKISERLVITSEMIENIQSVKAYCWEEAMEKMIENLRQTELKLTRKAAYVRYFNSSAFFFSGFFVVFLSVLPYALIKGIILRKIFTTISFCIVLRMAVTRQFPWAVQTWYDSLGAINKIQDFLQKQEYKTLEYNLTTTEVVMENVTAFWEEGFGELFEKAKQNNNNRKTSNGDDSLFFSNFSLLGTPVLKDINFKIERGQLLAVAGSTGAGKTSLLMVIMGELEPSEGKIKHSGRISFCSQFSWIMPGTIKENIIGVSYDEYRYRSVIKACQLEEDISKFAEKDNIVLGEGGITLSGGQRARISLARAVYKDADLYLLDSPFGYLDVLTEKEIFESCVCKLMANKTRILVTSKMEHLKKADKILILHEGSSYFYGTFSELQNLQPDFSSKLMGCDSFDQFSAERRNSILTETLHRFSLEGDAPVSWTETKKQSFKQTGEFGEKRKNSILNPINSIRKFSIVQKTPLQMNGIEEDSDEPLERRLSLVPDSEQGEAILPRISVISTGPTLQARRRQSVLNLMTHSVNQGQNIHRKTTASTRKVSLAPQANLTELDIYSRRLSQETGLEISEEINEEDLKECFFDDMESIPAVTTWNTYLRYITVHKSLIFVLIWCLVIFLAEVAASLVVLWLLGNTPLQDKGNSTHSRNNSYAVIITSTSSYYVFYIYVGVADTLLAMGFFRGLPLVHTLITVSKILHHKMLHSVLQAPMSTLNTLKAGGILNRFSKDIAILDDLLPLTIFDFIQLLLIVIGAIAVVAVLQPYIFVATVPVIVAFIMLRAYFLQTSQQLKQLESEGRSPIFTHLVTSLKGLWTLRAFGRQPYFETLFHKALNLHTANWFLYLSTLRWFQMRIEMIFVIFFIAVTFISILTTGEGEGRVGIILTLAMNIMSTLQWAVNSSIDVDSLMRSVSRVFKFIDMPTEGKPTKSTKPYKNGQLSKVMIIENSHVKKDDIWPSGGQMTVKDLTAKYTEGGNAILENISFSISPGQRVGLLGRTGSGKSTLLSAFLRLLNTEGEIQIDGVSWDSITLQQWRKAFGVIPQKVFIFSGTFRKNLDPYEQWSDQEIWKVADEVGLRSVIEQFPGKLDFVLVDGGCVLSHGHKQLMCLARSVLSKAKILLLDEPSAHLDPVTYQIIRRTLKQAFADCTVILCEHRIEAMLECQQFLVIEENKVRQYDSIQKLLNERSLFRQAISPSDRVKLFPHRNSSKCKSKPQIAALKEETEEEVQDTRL

`Cc1cccc(C)c1-c1cc2nc(n1)NS(=O)(=O)c1cccc(c1)C(=O)N[C@H](CC(C)C)C(C1CC1)O2` (stereo partly drawn) [Compound 238]: where the note is “Table 8”, the “Ent. A Max Activity” value is reported as “+++ (+++ is >60%)” and the EC50 is 1000 to 3000 nM.

Consider `Cc1cccc(C)c1-c1cc2nc(n1)NS(=O)(=O)c1cccc(c1)C(=O)N[C@@H]1CCN(C(=O)OC(C)(C)C)C[C@H]1O2` (single isomer, unassigned) [Compound 88, tert-Butyl 20-(2,6-dimethylphenyl)-10,16,16-trioxo-2-oxa-16λ^6-thia-5,9,17,19,22-pentaazatetracyclo[16.3.1.111,15.03,8]tricosa-1(21),11(23),12,14,18(22),19-hexaene-5-carboxylate], for which the “Ent. A Max Activity” value (Table 9) is reported as “+ (+ is <30%)”.

As to `Cc1cccc(C)c1-c1cc2nc(n1)NS(=O)(=O)c1cccc(c1)C(=O)NCC(c1ccc(C(C)(C)O)cc1)O2` (stereo not drawn) [Compound 245], the EC50 (Table 8) was 3000 to 30000 nM.

On to `CC(C)C[C@@H]1COc2cc(C3CCCCC3(C)C)nc(n2)NS(=O)(=O)c2cccc(c2)C(=O)N1` (stereo partly drawn) [Compound 68, (11R)-6-(2,2-Dimethylcyclohexyl)-11-isobutyl-2,2-dioxo-9-oxa-2λ^6-thia-3,5,12,19-tetrazatricyclo[12.3.1.14,8]nonadeca-1(18),4,6,8(19),14,16-hexaen-13-one], for which, for the setting “Table 9”, the “Ent. A Max Activity” value is listed as “+++ (+++ is >60%)” and the EC50 is 1000 to 3000 nM.

In the case of `CC(C)C[C@@H]1COc2cc(C3CCCCO3)nc(n2)NS(=O)(=O)c2cccc(c2)C(=O)N1` (stereo partly drawn) [Compound 313], the EC50 (Table 8) lay in the range of 3000 to 30000 nM.

As for `Cc1cccc(C)c1-c1cc2nc(n1)NS(=O)(=O)c1cccc(c1)C(=O)NCC(c1ccc(/C=C/C(C)(C)C)cc1)O2` (stereo not drawn) [Compound 23, 10-[4-[(E)-3,3-Dimethylbut-1-enyl]phenyl]-6-(2,6-dimethylphenyl)-2,2-dioxo-9-oxa-2λ^6-thia-3,5,12,19-tetrazatricyclo[12.3.1.14,8]nonadeca-1(18),4(19),5,7,14,16-hexaen-13-one], where the note is “Table 9”, the “Ent. A Max Activity” value is “+++ (+++ is >60%)” and the EC50 is less than 1000 nM.

For `Cc1cccc(C)c1-c1cc2nc(n1)NS(=O)(=O)c1cccc(c1)C(=O)NCC1(CCN(C(=O)C3(c4ccc5c(c4)CCC5)CC3)CC1)CO2` [Compound 464], under “Enteroid Assay A”, the “Ent. A Max Activity” value is reported as “+++ (+++ is >600%)” and the EC50 fell in the range of 1000 to 3000 nM.

On to `Cc1cccc(C)c1-c1cc2nc(n1)NS(=O)(=O)c1cccc(c1)C(=O)NC(C(=O)NC1CCCCC1)CO2` (stereo not drawn) [Compound 237], for which, under “Table 8”, the “Ent. A Max Activity” value is given as “+ (+ is <30%)”.

With `CCCC(NC(=O)OC(C)(C)C)C(=O)N1CCC2(CC1)CNC(=O)c1cccc(c1)S(=O)(=O)Nc1nc(cc(-c3c(C)cccc3C)n1)OC2` (stereo not drawn) [Compound 449], for the setting “Enteroid Assay A”, the “Ent. A Max Activity” value was “++ (++ is 30-60%)”.

With `CC(C)C[C@@H]1COc2cc(-n3ccc(OCCC4(C(F)(F)F)CC4)n3)nc(n2)NS(=O)(=O)c2cccc(c2)C(=O)N1` [Compound 306], the “Ent. A Max Activity” value (Table 8) was “+ (+ is <30%)”.

Consider `Cc1cccc(C)c1-c1cc2nc(n1)NS(=O)(=O)c1cccc(c1)C(=O)NCC(CC(C)C)O2` (stereo not drawn) [Compound 490], for which, under “Enteroid Assay A”, the “Ent. A Max Activity” value is listed as “+++ (+++ is >600%)” and the EC50 fell in the range of 1000 to 3000 nM.

As to `CC(C)C[C@@H]1COc2cc(C3=CCC(C)CC3)nc(n2)NS(=O)(=O)c2cccc(c2)C(=O)N1` (stereo partly drawn) [Compound 324], where the note is “Enteroid Assay A”, the “Ent. A Max Activity” value was “++ (++ is 30-60%)” and the EC50 was in the range of 1000 to 3000 nM.

For the compound `COc1cc(C)c(CN2CCC3(CC2)CNC(=O)c2cccc(c2)S(=O)(=O)Nc2nc(cc(-c4c(C)cccc4C)n2)OC3)cc1C` [Compound 438], where the note is “Enteroid Assay A”, the “Ent. A Max Activity” value was “++ (++ is 30-60%)” and the EC50 was 1000 to 3000 nM.

Regarding `Cc1cccc(C)c1-c1cc2nc(n1)NS(=O)(=O)c1cccc(c1)C(=O)NC(CCC1(C(F)(F)F)CC1)CO2` (stereo not drawn) [Compound 92, 6-(2,6-dimethylphenyl)-2,2-dioxo-11-[2-[1-(trifluoromethyl)cyclopropyl]ethyl]-9-oxa-2λ^6-thia-3,5,12,19-tetrazatricyclo[12.3.1.14,8]nonadeca-1(18),4(19),5,7,14,16-hexaen-13-one], where the note is “Table 8”, the “Ent. A Max Activity” value is recorded as “+++ (+++ is >60%)” and the EC50 is less than 1000 nM.

Take `Cc1ccc(C2CNC(=O)c3cccc(c3)S(=O)(=O)Nc3nc(cc(-c4c(C)cccc4C)n3)O2)cc1` (stereo not drawn) [Compound 406]: the “Ent. A Max Activity” value (Table 8) is “+ (+ is <30%)”.

For `Cc1cccc(C)c1-c1cc2nc(n1)NS(=O)(=O)c1cccc(c1)C(=O)N[C@@H](C)[C@H](c1ccc(C(C)(C)C)cc1)O2` [Compound 228], where the note is “Table 9”, the “Ent. A Max Activity” value is “+ (+ is <30%)” and the EC50 was less than 1000 nM.

Turning to `Cc1cccc(C)c1-c1cc2nc(n1)NS(=O)(=O)c1cccc(c1)C(=O)NC1(CCCC1)CO2` [Compound 360], where the note is “Table 8”, the “Ent. A Max Activity” value is listed as “+++ (+++ is >60%)” and the EC50 was less than 1000 nM.

In the case of `Cc1cc(C(C)(C)C)ccc1C1CNC(=O)c2cccc(c2)S(=O)(=O)Nc2nc(cc(-c3c(C)cccc3C)n2)O1` (stereo not drawn) [Compound 157], under “Table 8”, the “Ent. A Max Activity” value is listed as “+++ (+++ is >60%)” and the concentration giving a half-maximal response (EC50) is less than 1000 nM.

As to `Cc1cccc(C)c1-c1cc2nc(n1)NS(=O)(=O)c1cccc(c1)C(=O)NCC(C13CC4CC(CC(C4)C1)C3)O2` (stereo not drawn) [Compound 244], where the note is “Table 8”, the EC50 is less than 1000 nM.

With `Cc1cccc(C)c1-c1cc2nc(n1)NS(=O)(=O)c1cccc(c1)C(=O)NC[C@@H](c1ccc(C(C)(C)C(F)(F)F)cc1)O2` [Compound 256], for the setting “Table 9”, the “Ent. A Max Activity” value was “+++ (+++ is >60%)” and the EC50 is less than 1000 nM.

Consider `Cc1cccc(C)c1-c1cc2nc(n1)NS(=O)(=O)c1cccc(c1)C(=O)N[C@H](COCc1ccccc1)CO2` [Compound 486], for which, for the setting “Enteroid Assay A”, the “Ent. A Max Activity” value is on record as “+++ (+++ is >600%)” and the EC50 was in the range of 1000 to 3000 nM.

With `CCC(CC)(CC)c1ccc([C@@H]2CNC(=O)c3cccc(c3)S(=O)(=O)Nc3nc(cc(-c4c(C)cccc4C)n3)O2)cc1` [Compound 259], where the note is “Table 9”, the “Ent. A Max Activity” value was “+ (+ is <30%)” and the EC50 was less than 1000 nM.

Take `Cc1cccc(C)c1-c1cc2nc(n1)NS(=O)(=O)c1cccc(c1)C(=O)NC[C@@H](c1ccc(C3CC3)cc1)O2` [Compound 260]: where the note is “Table 9”, the “Ent. A Max Activity” value is “+++ (+++ is >60%)” and the EC50 was less than 1000 nM.

For `Cc1cccc(C)c1-c1cc2nc(n1)NS(=O)(=O)c1cccc(c1)C(=O)NC(C(=O)NCc1ccccc1)CO2` (stereo not drawn) [Compound 236], the “Ent. A Max Activity” value (Table 8) is reported as “+ (+ is <30%)”.

As to `CC(C)C[C@@H]1COc2cc(C3CC4CCC3(C)C4(C)C)nc(n2)NS(=O)(=O)c2cccc(c2)C(=O)N1` (stereo partly drawn) [Compound 311], the EC50 (Table 8) is less than 1000 nM.

On to `Cc1cccc(C)c1-c1cc2nc(n1)NS(=O)(=O)c1cccc(c1)C(=O)N[C@H](CC1CCCCC1)[C@@H](C1CC1)O2` [Compound 131], for which, under “Table 9”, the “Ent. A Max Activity” value was “+++ (+++ is >60%)” and the EC50 is less than 1000 nM.

For the compound `Cc1cccc(C)c1-c1cc2nc(n1)NS(=O)(=O)c1cccc(c1)C(=O)NCC(c1ccccc1)CO2` (stereo not drawn) [Compound 201], the EC50 (Enteroid Assay A) is less than 1000 nM.

Take `Cc1cccc(C)c1-c1cc2nc(n1)NS(=O)(=O)c1cccc(c1)C(=O)NCC(c1ccc(CCC(C)(C)C)cc1)O2` (stereo not drawn) [Compound 24, 10-[4-(3,3-dimethylbutyl)phenyl]-6-(2,6-dimethylphenyl)-2,2-dioxo-9-oxa-2λ^6-thia-3,5,12,19-tetrazatricyclo[12.3.1.14,8]nonadeca-1(18),4(19),5,7,14,16-hexaen-13-one]: under “Table 9”, the “Ent. A Max Activity” value is recorded as “+++ (+++ is >60%)” and the EC50 is less than 1000 nM.
